Assay results taken from patent US5795858A, “Treatment or prevention of Crohn's disease and/or ulcerative colitis” (Peptide Technology Limited, priority 1993, dated 1998).
“Also recorded” adds a separate entry of the source.

System: TNBS colitis
Assay: TNBS colitis in rats, 2 week series, once daily s.c. treatment
Format: in vivo, Male Sprague-Dawley rats
Experimental: Treatment was continued on a once daily basis for the following 14 or 28 days. On day 14 (2 week series) or 28 (4 week series), animals were weighed and anaesthetised with pentobarbital. A cardiac puncture was performed to obtain a sample of peripheral blood for the determination of total white blood cell count (WBC) using a coulter counter, and differential count. A midline laparotomy was then performed and the colon exposed and excised. The colon was then opened longitudinally and rinsed clear of […] material. The severity of colonic mucosal injury, diarrhoea, and adhesions was then scored by an observer unaware of the treatment group of the animals using the attached criteria. The length (in cm) and weight of each colonic segment was then determined to allow the determination of the colonic weight/length ratio (as an index of intramural edema and/or fibrosis). Samples of tissue were then taken for biochemical determination of tissue myeloperoxidase (MPO) activity, as an index of granulocyte accumulation using standard biochemical techniques. Samples of tissue were also taken and fixed for subsequent processing for histopathological examination. Differences between the different treatment groups were analysed using either one way analysis of variance (body weight, WBC counts, colonic weight/length ratio, […] activity) or the non-parametric equivalent Kruskall-Wallis test (semiquantitive grading of severity of mucosal injury, adhesions, or diarrhoea). Significance of differences between individual pairs of treatment groups were then assessed using post hoc Tukey's test for parametric data and Dunn's multiple comparison test for non-parametric data. […]

C[C@]12C=CC(=O)C=C1CC[C@@H]1[C@@H]2C(=O)C[C@@]2(C)[C@H]1CC[C@]2(O)C(=O)CO [prednisone, reference compound]
total WBC counts (5 mg/kg once daily s.c. for 2 weeks, vs TNBS colitis animals receiving vehicle, p 0.06-0.07, FIG. 1): reductions in total WBC counts | severity of colonic adhesions (5 mg/kg once daily s.c., 2 weeks, FIG. 4): general trend towards reduction of adhesions | TNBS colitis-associated changes in body weight (weight gain) (5 mg/kg once daily s.c., 2 weeks, initial vs final body weight, FIG. 2): increased weight gains in animals with colitis, with this becoming significant (p<0.05) | colonic weight/length ratio (index of colonic edema) (5 mg/kg once daily s.c., 2 weeks, pattern compared with adhesions (no significant reduction, trend towards reduction), FIG. 5): Virtually identical patterns | colonic myeloperoxidase activity (index of granulocyte accumulation) (5 mg/kg once daily s.c., 2 weeks, pattern compared with adhesions (no significant reduction, trend towards reduction), FIG. 7): Virtually identical patterns

D--Ala--Ser--Thr--Thr--Thr--Asn--Tyr--Thr--NH2 [Peptide T]
TNBS colitis-associated changes in body weight (weight gain) (rat, in vivo): increased weight gains in animals with colitis, with this becoming significant (p<0.05); also recorded: approaching significance (p values of 0.06 to 0.08) | colonic myeloperoxidase activity (index of granulocyte accumulation) (rat, in vivo): Virtually identical patterns | colonic weight/length ratio (index of colonic edema) (rat, in vivo): Virtually identical patterns | reducing failure to thrive/lack of weight gain (rat, in vivo): comparable to prednisone | reducing the severity of the leukocytosis (rat, in vivo): comparable to prednisone | severity of colonic adhesions (rat, in vivo): general trend towards reduction of adhesions | severity of mucosal injury (semiquantitative grading scale) (rat, in vivo): may have marginally reduced the severity of mucosal injury | total WBC counts (rat, in vivo): reductions in total WBC counts
